Reference: ChEMBL document CHEMBL3352482, “Discovery of potent N-(isoxazol-5-yl)amides as HSP90 inhibitors” (Eur J Med Chem, 2014)
Activity calls are given as the source filed them. No cut-off for these calls is given here.

Assays:
[1] = target: T1, Heat shock protein HSP 90-alpha (Homo sapiens, UniProt P07900); conditions: U-87MG ATCC
Description: Inhibition of HSP90alpha in human U87MG cells assessed as increase in HSP70 level at 50 to 200 nM after 24 hrs by western blotting

[2] = target: T1, Heat shock protein HSP 90-alpha; conditions: U-87MG ATCC; remark: listed apart in the source
Description: Inhibition of HSP90alpha in human U87MG cells assessed as decrease in c-Met level at 50 to 100 nM after 24 hrs by western blotting

[3] = target: T1, Heat shock protein HSP 90-alpha; conditions: U-87MG ATCC; remark: listed apart in the source
Description: Inhibition of HSP90alpha in human U87MG cells assessed as decrease in p-Akt level at 50 to 100 nM after 24 hrs by western blotting

[4] = target: T1, Heat shock protein HSP 90-alpha; conditions: U-87MG ATCC; remark: listed apart in the source
Description: Inhibition of HSP90alpha in human U87MG cells assessed as decrease in p-Erk level at 50 to 100 nM after 24 hrs by western blotting

[5] = target: T1, Heat shock protein HSP 90-alpha; conditions: U-87MG ATCC; remark: listed apart in the source
Description: Inhibition of HSP90alpha in human U87MG cells assessed as increase in HSP27 level at 50 to 200 nM after 24 hrs by western blotting

[6] = tested on: A549; assay: Growth inhibition of human A549 cells after 72 hrs by SRB assay; assay type: functional; conditions: A549, 72 h
[7] = target: T1, Heat shock protein HSP 90-alpha
Description: Inhibition of HSP90alpha (unknown origin) after 16 hrs by FP enzymatic assay

[8] = tested on: SW480; assay: Growth inhibition of human SW480 cells after 72 hrs by SRB assay; assay type: functional; conditions: SW480, 72 h
[9] = Half life in mouse at 10 mg/kg, iv; assay type: ADME, organism-based; parameters: dose 10 mg/kg, route intravenous; conditions: in vivo
[10] = tested on: NCI-H596; assay: Growth inhibition of human NCI-H596 cells after 72 hrs by SRB assay; assay type: functional; conditions: NCI-H596, 72 h
[11] = Intrinsic clearance in rat liver microsomes assessed per mg protein; assay type: ADME; conditions: read-out: CLH
[12] = Cmax in mouse at 50 mg/kg, po; assay type: ADME, organism-based; parameters: dose 50 mg/kg, route oral; conditions: in vivo
[13] = Growth inhibition of human U87MG cells after 72 hrs by SRB assay; assay type: functional, U-87MG ATCC; conditions: U-87 MG
[14] = Mean residence time in mouse at 50 mg/kg, po; assay type: ADME, organism-based; parameters: dose 50 mg/kg, route oral; conditions: in vivo
[15] = Oral bioavailability in mouse at 50 mg/kg; assay type: ADME, organism-based; conditions: in vivo
[16] = tested on: HeLa; assay: Growth inhibition of human HeLa cells after 72 hrs by SRB assay; assay type: functional
[17] = Growth inhibition of human HCC827 cells after 72 hrs by SRB assay; assay type: functional; conditions: HCC827, 72 h
[18] = AUC (0 to t) in mouse at 10 mg/kg, iv; assay type: ADME, organism-based; parameters: dose 10 mg/kg, route intravenous; conditions: plasma
[19] = Growth inhibition of human SMMC7721 cells after 72 hrs by SRB assay; assay type: functional; conditions: SMMC-7721, 72 h
[20] = Half life in mouse at 50 mg/kg, po; assay type: ADME, organism-based; parameters: dose 50 mg/kg, route oral; conditions: in vivo
[21] = tested on: SW-620; assay: Growth inhibition of human SW620 cells after 72 hrs by SRB assay; assay type: functional; conditions: SW-620, 72 h
[22] = Growth inhibition of human 786-O cells after 72 hrs by SRB assay; assay type: functional; conditions: 786-0, 72 h
[23] = Growth inhibition of human HCT116 cells after 72 hrs by SRB assay; assay type: functional; conditions: HCT-116, 72 h
[24] = tested on: MDA-MB-231; assay: Growth inhibition of human MDA-MB-231 cells after 72 hrs by SRB assay; assay type: functional; conditions: MDA-MB-231, 72 h
[25] = tested on: DU-145; assay: Growth inhibition of human DU145 cells after 72 hrs by SRB assay; assay type: functional; conditions: DU-145, 72 h
[26] = tested on: SK-MEL-28; assay: Growth inhibition of human SK-MEL-28 cells after 72 hrs by SRB assay; assay type: functional; conditions: SK-MEL-28, 72 h
[27] = Tmax in mouse at 50 mg/kg, po; assay type: ADME, organism-based; parameters: dose 50 mg/kg, route oral; conditions: in vivo
[28] = Intrinsic clearance in human liver microsomes assessed per mg protein; assay type: ADME; conditions: read-out: CLH
[29] = tested on: MDA-MB-468; assay: Growth inhibition of human MDA-MB-468 cells after 72 hrs by SRB assay; assay type: functional; conditions: MDA-MB-468, 72 h
[30] = AUC (0 to t) in mouse at 50 mg/kg, po; assay type: ADME, organism-based; parameters: dose 50 mg/kg, route oral; conditions: plasma
[31] = tested on: HCC1937; assay: Growth inhibition of human HCC1937 cells after 72 hrs by SRB assay; assay type: functional; conditions: HCC1937, 72 h
[32] = Growth inhibition of human OVCAR8 cells after 72 hrs by SRB assay; assay type: functional; conditions: OVCAR-8, 72 h
[33] = Mean residence time in mouse at 10 mg/kg, iv; assay type: ADME, organism-based; parameters: dose 10 mg/kg, route intravenous; conditions: in vivo

CC(C)c1cc(-c2noc(NC(=O)C3CC3)c2-c2ccc(CN3CCC(N4CCOCC4)CC3)cc2)c(O)cc1O [listing 1 of 2 here]
inhibition [1]: Active
inhibition [2]: Active
inhibition [3]: Active
inhibition [4]: Active
inhibition [5]: Active

COc1ccc(-c2c(-c3cc(C(C)(C)C)c(O)cc3O)noc2NC(C)=O)cc1
GI50 [6]: 6170 nM
IC50 [7]: 300 nM

COc1ccc(-c2c(-c3cc(Cl)c(O)cc3O)noc2NC(C)=O)cc1
GI50 [6]: 7200 nM
IC50 [7]: 70 nM

CCCCCCCC(=O)Nc1onc(-c2cc(Cl)c(O)cc2O)c1-c1ccc(OC)cc1
GI50 [6]: 761 nM
IC50 [7]: 43 nM

COc1ccc(-c2c(-c3ccc(O)cc3O)noc2NC(C)=O)cc1
GI50 [6]: 13100 nM
IC50 [7]: 140 nM

CC(C)c1cc(-c2noc(NC(=O)C3CC3)c2-c2ccc(CN(C)CCc3ccccc3)cc2)c(O)cc1O
GI50 [6]: 162 nM
IC50 [7]: 140 nM

CC(C)c1cc(-c2noc(NC(=O)C3CC3)c2-c2ccc(CN3CCC(N(C)C)CC3)cc2)c(O)cc1O
GI50 [6]: 2420 nM
IC50 [7]: 70 nM

CC(C)c1cc(-c2noc(NC(=O)C3CC3)c2-c2ccc(CN3CCSCC3)cc2)c(O)cc1O
GI50 [6]: 203 nM
IC50 [7]: 57 nM

CCC(=O)Nc1onc(-c2cc(Cl)c(O)cc2O)c1-c1ccc(OC)cc1
GI50 [6]: 2360 nM
IC50 [7]: 37 nM

CC(C)c1cc(-c2noc(NC(=O)C3CC3)c2-c2ccc(CN3CCCCC3)cc2)c(O)cc1O
GI50 [6]: 140 nM
IC50 [7]: 17 nM

COc1ccc(-c2c(-c3cc(Cl)c(O)cc3O)noc2NC(=O)C2CCCC2)cc1
GI50 [6]: 18700 nM
IC50 [7]: 44 nM

CC(C)c1cc(-c2noc(NC(=O)C3CC3)c2-c2ccc(CN(C)CCN(C)C)cc2)c(O)cc1O
GI50 [6]: 499 nM
IC50 [7]: 55 nM

COc1ccc(-c2c(-c3cc(Cl)c(O)cc3O)noc2NC(=O)C2CC2)cc1
GI50 [6]: 20700 nM
IC50 [7]: 53 nM

CCN(CC)Cc1ccc(-c2c(-c3cc(C(C)C)c(O)cc3O)noc2NC(=O)C2CC2)cc1
GI50 [6]: 126 nM
IC50 [7]: 21 nM

CC(C)c1cc(-c2noc(NC(=O)C3CC3)c2-c2ccc(CN3CCCCC3C)cc2)c(O)cc1O (stereo not drawn)
GI50 [6]: 113 nM
IC50 [7]: 35 nM

CC(C)c1cc(-c2noc(NC(=O)C3CC3)c2-c2ccc(CN3CCC(N4CCOCC4)CC3)cc2)c(O)cc1O [listing 2 of 2 here]
GI50 [8]: 82 nM
half-life [9]: 6.46 h
GI50 [10]: 219 nM
microsomal CLint [11]: 10 µL/min/mg
Cmax [12]: 149 ng/mL
GI50 [13]: 115 nM
MRT [14]: 2.71 h
bioavailability [15]: 9.2%
GI50 [16]: 71 nM
GI50 [17]: 35 nM
AUC(0-t) [18]: 748 ng·h/mL
GI50 [19]: 56 nM
half-life [20]: 1.98 h
GI50 [6]: 94 nM
GI50 [21]: 56 nM
GI50 [22]: 69 nM
GI50 [23]: 112 nM
IC50 [7]: 30 nM
GI50 [24]: 62 nM
GI50 [25]: 45 nM
GI50 [26]: 153 nM
Tmax [27]: 0.25 h
microsomal CLint [28]: 70 µL/min/mg
GI50 [29]: 115 nM
AUC(0-t) [30]: 356 ng·h/mL
GI50 [31]: 87 nM
GI50 [32]: 48 nM
MRT [33]: 4.52 h

COc1ccc(-c2c(-c3cc(Cl)c(O)cc3O)noc2NC(=O)CC(C)C)cc1
GI50 [6]: 5980 nM
IC50 [7]: 35 nM
